Laboratory results reported in patent US20250243189A1, “HERBICIDAL IMIDAZOLE-CONTAINING COMPOUNDS” (SYNGENTA CROP PROTECTION AG, priority 2022, published 2025).

Assays:
Format in all cases: in vivo
Conditions in all cases: 250 g/ha, evaluated after 13 days, five-point scale
AMAPA [1] = assay: Post-emergence herbicidal glasshouse test
[2] = system: Amaranthus retoflexus (AMARE); assay: Post-emergence herbicidal glasshouse test
Method in brief: (§1)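 Glasshouse pots (24/16° C., 14 h light, 65% humidity) were sprayed one day after sowing (pre-emergence) or after 8 days (post-emergence). The spray was acetone/water with 0.5% Tween 20, at 250 g/ha unless stated. Percentage damage was scored after 13 days on a five-point scale (1=0-20% to 5=81-100%).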

[3] = system: Echinochloa crus-galli (ECHCG); assay: Post-emergence herbicidal glasshouse test
Method in brief: as §1

IPOHE [4] = assay: Post-emergence herbicidal glasshouse test
Method in brief: as §1

Setaria faberi (SETFA) [5] = assay: Post-emergence herbicidal glasshouse test
Method in brief: as §1

AMAPA [6] = assay: Pre-emergence herbicidal glasshouse test
[7] = system: Amaranthus retoflexus (AMARE); assay: Pre-emergence herbicidal glasshouse test
Method in brief: as §1

[8] = system: Echinochloa crus-galli (ECHCG); assay: Pre-emergence herbicidal glasshouse test
Method in brief: as §1

IPOHE [9] = assay: Pre-emergence herbicidal glasshouse test
Method in brief: as §1

Setaria faberi (SETFA) [10] = assay: Pre-emergence herbicidal glasshouse test
Method in brief: as §1

FC(F)(F)c1cn(Cc2ncc(Cl)cn2)c(-n2cc(Cl)cn2)n1 [Compound 1.065, 5-chloro-2-[[2-(4-chloropyrazol-1-yl)-4-(trifluoromethyl)imidazol-1-yl]methyl]pyrimidine] was tested, and the “percentage damage caused to the plant, AMAPA” value (AMAPA [1]) was 4 (4=61-80%), the “percentage damage caused to the plant, AMARE” value [2] was 4 (4=61-80%) and the “percentage damage caused to the plant, ECHCG” value [3] was 2 (2=21-40%). The “percentage damage caused to the plant, IPOHE” value (IPOHE [4]) was 3 (3=41-60%), the “percentage damage caused to the plant, SETFA” value (Setaria faberi (SETFA) [5]) was 2 (2=21-40%) and the “percentage damage caused to the plant, AMAPA” value (AMAPA [6]) was 5 (5=81-100%). For the same molecule, the “percentage damage caused to the plant, AMARE” value [7] was 5 (5=81-100%), the “percentage damage caused to the plant, ECHCG” value [8] was 1 (1=0-20%) and the “percentage damage caused to the plant, IPOHE” value (IPOHE [9]) was 4 (4=61-80%). The “percentage damage caused to the plant, SETFA” value (Setaria faberi (SETFA) [10]) was 2 (2=21-40%).

With FC(F)(F)c1cn(Cc2ncc(Cl)cn2)c(-c2ccc(Cl)s2)n1 [Compound 1.001, 5-chloro-2-[[2-(5-chloro-2-thienyl)-4-(trifluoromethyl)imidazol-1-yl]methyl]pyrimidine] the “percentage damage caused to the plant, AMAPA” value (AMAPA [1]) was 5 (5=81-100%), the “percentage damage caused to the plant, AMARE” value [2] was 5 (5=81-100%) and the “percentage damage caused to the plant, ECHCG” value [3] was 5 (5=81-100%). The “percentage damage caused to the plant, IPOHE” value (IPOHE [4]) was 4 (4=61-80%), the “percentage damage caused to the plant, SETFA” value (Setaria faberi (SETFA) [5]) was 5 (5=81-100%) and the “percentage damage caused to the plant, AMAPA” value (AMAPA [6]) was 5 (5=81-100%). For the same molecule, the “percentage damage caused to the plant, AMARE” value [7] was 5 (5=81-100%), the “percentage damage caused to the plant, ECHCG” value [8] was 5 (5=81-100%) and the “percentage damage caused to the plant, IPOHE” value (IPOHE [9]) was 5 (5=81-100%). The “percentage damage caused to the plant, SETFA” value (Setaria faberi (SETFA) [10]) was 5 (5=81-100%).

Cc1csc(-c2nc(C(F)(F)F)cn2Cc2ncc(Cl)cn2)c1 [Compound 1.029] was tested, and the “percentage damage caused to the plant, AMAPA” value (AMAPA [1]) was 5 (5=81-100%), the “percentage damage caused to the plant, AMARE” value [2] was 5 (5=81-100%) and the “percentage damage caused to the plant, ECHCG” value [3] was 4 (4=61-80%). The “percentage damage caused to the plant, IPOHE” value (IPOHE [4]) was 2 (2=21-40%), the “percentage damage caused to the plant, SETFA” value (Setaria faberi (SETFA) [5]) was 4 (4=61-80%) and the “percentage damage caused to the plant, AMAPA” value (AMAPA [6]) was 5 (5=81-100%). For the same molecule, the “percentage damage caused to the plant, AMARE” value [7] was 5 (5=81-100%), the “percentage damage caused to the plant, ECHCG” value [8] was 5 (5=81-100%) and the “percentage damage caused to the plant, IPOHE” value (IPOHE [9]) was 1 (1=0-20%). The “percentage damage caused to the plant, SETFA” value (Setaria faberi (SETFA) [10]) was 5 (5=81-100%).

With FC(F)(F)c1cn(Cc2ncc(Cl)cn2)c(-c2cc(Cl)c(Cl)s2)n1 [Compound 1.070] the “percentage damage caused to the plant, AMAPA” value (AMAPA [1]) was 5 (5=81-100%), the “percentage damage caused to the plant, AMARE” value [2] was 5 (5=81-100%) and the “percentage damage caused to the plant, ECHCG” value [3] was 5 (5=81-100%). The “percentage damage caused to the plant, IPOHE” value (IPOHE [4]) was 4 (4=61-80%), the “percentage damage caused to the plant, SETFA” value (Setaria faberi (SETFA) [5]) was 5 (5=81-100%) and the “percentage damage caused to the plant, AMAPA” value (AMAPA [6]) was 5 (5=81-100%). For the same molecule, the “percentage damage caused to the plant, AMARE” value [7] was 5 (5=81-100%), the “percentage damage caused to the plant, ECHCG” value [8] was 5 (5=81-100%) and the “percentage damage caused to the plant, IPOHE” value (IPOHE [9]) was 3 (3=41-60%). The “percentage damage caused to the plant, SETFA” value (Setaria faberi (SETFA) [10]) was 5 (5=81-100%).

Cn1cc(-c2nc(C(F)(F)F)cn2Cc2ncc(Cl)cn2)cn1 [Compound 1.014] was tested, and the “percentage damage caused to the plant, AMAPA” value (AMAPA [1]) was 3 (3=41-60%), the “percentage damage caused to the plant, AMARE” value [2] was 3 (3=41-60%) and the “percentage damage caused to the plant, ECHCG” value [3] was 2 (2=21-40%). For the same molecule, the “percentage damage caused to the plant, IPOHE” value (IPOHE [4]) was 3 (3=41-60%), the “percentage damage caused to the plant, SETFA” value (Setaria faberi (SETFA) [5]) was 2 (2=21-40%) and the “percentage damage caused to the plant, AMAPA” value (AMAPA [6]) was 5 (5=81-100%). For the same molecule, the “percentage damage caused to the plant, AMARE” value [7] was 4 (4=61-80%), the “percentage damage caused to the plant, ECHCG” value [8] was 4 (4=61-80%) and the “percentage damage caused to the plant, IPOHE” value (IPOHE [9]) was 5 (5=81-100%). The “percentage damage caused to the plant, SETFA” value (Setaria faberi (SETFA) [10]) was 4 (4=61-80%).

In the case of Cc1cc(-c2nc(C(F)(F)F)cn2Cc2ncc(Cl)cn2)n(C)n1 [Compound 1.024], the “percentage damage caused to the plant, AMAPA” value (AMAPA [1]) was 5 (5=81-100%), the “percentage damage caused to the plant, AMARE” value [2] was 5 (5=81-100%) and the “percentage damage caused to the plant, ECHCG” value [3] was 5 (5=81-100%). For the same molecule, the “percentage damage caused to the plant, IPOHE” value (IPOHE [4]) was 5 (5=81-100%), the “percentage damage caused to the plant, SETFA” value (Setaria faberi (SETFA) [5]) was 5 (5=81-100%) and the “percentage damage caused to the plant, AMAPA” value (AMAPA [6]) was 5 (5=81-100%). For the same molecule, the “percentage damage caused to the plant, AMARE” value [7] was 5 (5=81-100%), the “percentage damage caused to the plant, ECHCG” value [8] was 5 (5=81-100%) and the “percentage damage caused to the plant, IPOHE” value (IPOHE [9]) was 5 (5=81-100%). For the same molecule, the “percentage damage caused to the plant, SETFA” value (Setaria faberi (SETFA) [10]) was 5 (5=81-100%).

With FC(F)(F)c1cn(Cc2ncc(Cl)cn2)c(-c2ccsc2)n1 [Compound 1.030] the “percentage damage caused to the plant, AMAPA” value (AMAPA [1]) was 5 (5=81-100%), the “percentage damage caused to the plant, AMARE” value [2] was 5 (5=81-100%) and the “percentage damage caused to the plant, ECHCG” value [3] was 4 (4=61-80%). For the same molecule, the “percentage damage caused to the plant, IPOHE” value (IPOHE [4]) was 4 (4=61-80%), the “percentage damage caused to the plant, SETFA” value (Setaria faberi (SETFA) [5]) was 5 (5=81-100%) and the “percentage damage caused to the plant, AMAPA” value (AMAPA [6]) was 5 (5=81-100%). The “percentage damage caused to the plant, AMARE” value [7] was 5 (5=81-100%), the “percentage damage caused to the plant, ECHCG” value [8] was 5 (5=81-100%) and the “percentage damage caused to the plant, IPOHE” value (IPOHE [9]) was 4 (4=61-80%). The “percentage damage caused to the plant, SETFA” value (Setaria faberi (SETFA) [10]) was 5 (5=81-100%).

FC(F)(F)c1cn(Cc2ncc(Cl)cn2)c(-c2ccns2)n1 [Compound 1.033] was tested, and the “percentage damage caused to the plant, AMAPA” value (AMAPA [1]) was 5 (5=81-100%), the “percentage damage caused to the plant, AMARE” value [2] was 5 (5=81-100%) and the “percentage damage caused to the plant, ECHCG” value [3] was 5 (5=81-100%). For the same molecule, the “percentage damage caused to the plant, IPOHE” value (IPOHE [4]) was 4 (4=61-80%), the “percentage damage caused to the plant, SETFA” value (Setaria faberi (SETFA) [5]) was 5 (5=81-100%) and the “percentage damage caused to the plant, AMAPA” value (AMAPA [6]) was 5 (5=81-100%). The “percentage damage caused to the plant, AMARE” value [7] was 5 (5=81-100%), the “percentage damage caused to the plant, ECHCG” value [8] was 5 (5=81-100%) and the “percentage damage caused to the plant, IPOHE” value (IPOHE [9]) was 5 (5=81-100%). For the same molecule, the “percentage damage caused to the plant, SETFA” value (Setaria faberi (SETFA) [10]) was 5 (5=81-100%).

For Cn1nccc1-c1nc(C(F)(F)F)cn1Cc1ncc(Cl)cn1 [Compound 1.005], the “percentage damage caused to the plant, AMAPA” value (AMAPA [1]) was 5 (5=81-100%), the “percentage damage caused to the plant, AMARE” value [2] was 5 (5=81-100%) and the “percentage damage caused to the plant, ECHCG” value [3] was 5 (5=81-100%). For the same molecule, the “percentage damage caused to the plant, IPOHE” value (IPOHE [4]) was 4 (4=61-80%), the “percentage damage caused to the plant, SETFA” value (Setaria faberi (SETFA) [5]) was 5 (5=81-100%) and the “percentage damage caused to the plant, AMAPA” value (AMAPA [6]) was 5 (5=81-100%). For the same molecule, the “percentage damage caused to the plant, AMARE” value [7] was 5 (5=81-100%), the “percentage damage caused to the plant, ECHCG” value [8] was 5 (5=81-100%) and the “percentage damage caused to the plant, IPOHE” value (IPOHE [9]) was 5 (5=81-100%). The “percentage damage caused to the plant, SETFA” value (Setaria faberi (SETFA) [10]) was 5 (5=81-100%).

With FC(F)(F)c1cn(Cc2ncc(Cl)cn2)c(-c2ccco2)n1 [Compound 1.016] the “percentage damage caused to the plant, AMAPA” value (AMAPA [1]) was 1 (1=0-20%), the “percentage damage caused to the plant, AMARE” value [2] was 1 (1=0-20%) and the “percentage damage caused to the plant, ECHCG” value [3] was 1 (1=0-20%). For the same molecule, the “percentage damage caused to the plant, IPOHE” value (IPOHE [4]) was 1 (1=0-20%), the “percentage damage caused to the plant, SETFA” value (Setaria faberi (SETFA) [5]) was 1 (1=0-20%) and the “percentage damage caused to the plant, AMAPA” value (AMAPA [6]) was 1 (1=0-20%). For the same molecule, the “percentage damage caused to the plant, AMARE” value [7] was 1 (1=0-20%), the “percentage damage caused to the plant, ECHCG” value [8] was 1 (1=0-20%) and the “percentage damage caused to the plant, IPOHE” value (IPOHE [9]) was 1 (1=0-20%). For the same molecule, the “percentage damage caused to the plant, SETFA” value (Setaria faberi (SETFA) [10]) was 1 (1=0-20%).

For FC(F)(F)c1cn(Cc2ncc(Cl)cn2)c(-c2ccc(Br)s2)n1 [Compound 1.069], the “percentage damage caused to the plant, AMAPA” value (AMAPA [1]) was 5 (5=81-100%), the “percentage damage caused to the plant, AMARE” value [2] was 5 (5=81-100%) and the “percentage damage caused to the plant, ECHCG” value [3] was 5 (5=81-100%). For the same molecule, the “percentage damage caused to the plant, IPOHE” value (IPOHE [4]) was 4 (4=61-80%), the “percentage damage caused to the plant, SETFA” value (Setaria faberi (SETFA) [5]) was 5 (5=81-100%) and the “percentage damage caused to the plant, AMAPA” value (AMAPA [6]) was 5 (5=81-100%). The “percentage damage caused to the plant, AMARE” value [7] was 5 (5=81-100%), the “percentage damage caused to the plant, ECHCG” value [8] was 5 (5=81-100%) and the “percentage damage caused to the plant, IPOHE” value (IPOHE [9]) was 5 (5=81-100%). For the same molecule, the “percentage damage caused to the plant, SETFA” value (Setaria faberi (SETFA) [10]) was 5 (5=81-100%).
